Laboratory results reported in patent US20010033841A1, “Modulating platelet function” (priority 1998, published 2001).

Columns and labels:
[1] = tested on: SDF-1 induced platelet aggregation; assay: Inhibition of SDF-1 induced platelet aggregation; format: cell-based, human
Protocol: (§1) Blood collection and platelet preparation. Human blood was collected from antecubital veins of healthy male or female, aspirin-free volunteers into syringes containing heparin (10 units/ml final concentration) for flow cytometry studies or sodium citrate (0.38% final concentration) for aggregation studies. Platelet rich plasma (PRP) was prepared by centrifugation of whole blood at 150 g for 15 minutes. Platelet poor plasma (PPP) was prepared by centrifugation of PRP at 1200 g for 15 minutes.
(§2) Aggregation studies. Experiments were performed using a Chrono-Log model 560 vs or 490-2D aggregometer (Havertown, Pa.). Aliquots of PRP (0.50 ml or 0.45 ml) with a platelet concentration of […] were incubated at 37° C. and stirred at 1000 rpm. Chemokines (PeproTech Inc., Rocky Hill, N.J., except SDF-1β, which was obtained from Genetics Institute, Boston, Mass.) were added and aggregation was measured as a percent change in optical density, with the instrument calibrated to yield 0% change in optical density for PRP and with the PPP 100% standard for change in optical density. Aggregation scale was set so that maximal aggregation gave 85-90% chart deflection. Inhibition experiments were done using CXCR4 mAb 12G5 (R&D, Minneapolis, Minn.), polyclonal anti-SDF-1 (R&D, Minneapolis, Minn.), pertussis toxin (Sigma, St. Louis, Mo.), wortmannin (Sigma), genestein (Sigma), and aspirin (Sigma). DMSO was used as vehicle for genestein and wortmannin and 1N NaOH was used as a vehicle for aspirin.

human platelets [2] = assay: Chemokine-induced platelet aggregation in platelet rich plasma (aggregometer); format: cell-based
Protocol: as §1, §2

human platelets [3] = assay: SDF-1 induced calcium flux in fura-2 loaded platelets; format: cell-based; conditions: SDF-1 50-100 nM, fura-2 340/380 ratio
Protocol: Calcium flux. Fura-2 loaded platelets were prepared from acid citrate dextrose anti-coagulated blood (Rink et al., J. Physiol. 393: 513-24, 1987). PRP was collected by centrifugation for 15 minutes at 200 g and 100 μM aspirin was added. Platelets were then loaded with fura-2 by incubating PRP with 2 μM acetoxymethyl ester of fura-2 (fura-2 AM; Molecular Probes, Inc., Eugene, Oreg.) for 45 minutes at 37° C. in the dark. PRP was then centrifuged at 1500 g for 10 minutes and the pellet washed and resuspended in a buffer containing 145 mM NaCl, 4 mM KCl, 1 mM NaH2PO4, 0.8 mM MgCl2, 1.8 mM CaCl2, 25 mM Hepes and 22 mM glucose. Changes in cytosolic free calcium were determined after addition of SDF-1 (500 or 1000 ng/ml) by monitoring the excitation fluorescence intensity emitted at 510 nm in response to sequential excitation at 340 nm and 380 nm using a Delta RAM (Random Access Monochromator) fluorimeter (Photon Technology International, Monmouth Junction, N.J.). The data are presented as the relative ratio of fluorescence at 340/380 nm.

[4] = tested on: resting T-cells, monocytes, B cell precursors, natural killer cells and CD34+ stem cells; conditions: Bleul et al. 1996; Campbell et al. 1998; cited from earlier work

For O=c1c(-c2ccc(O)cc2)coc2cc(O)cc(O)c12 [Genestein, genestein], the “effect on SDF-1 induced platelet aggregation” value (shortened to “effect”) ([1]; genestein 200 μM, 5 minutes preincubation, FIG. 5B) was “decreased SDF-1 platelet aggregation”.

In the case of pertussis toxin, the “effect” value ([1]; pertussis toxin 1.7 nM, 30 minute preincubation, SDF-1α 80 ng/ml, FIG. 4B) is reported as “blocked”.

In the case of CC(=O)Oc1ccccc1C(=O)O [Aspirin, aspirin], the “effect” value ([1]; aspirin 1 mM, FIG. 5A) is reported as “inhibited SDF-1 induced secondary aggregation”.

With “SDF-1: chemokine stromal derived factor-1; α or β form not specified at the place” the “induction of platelet aggregation” value (human platelets [2]; 40 nM chemokine, FIG. 1A) was “induced platelet aggregation”, the “donors responding with only primary aggregation” value (human platelets [2]; out of twelve donors tested) was “two” and the “donors with full primary and secondary aggregation response” value (human platelets [2]; out of twelve donors tested) was “ten”. For the same compound, the “increase in cytosolic calcium” value (human platelets [3]) was “induced an increase in cytosolic calcium” and the “concentration giving maximal chemotaxis” value [4] was 10 to 100 nM.

For SDF-1α, the “concentration at which a primary and secondary response was observed” value (human platelets [2]; FIGS. 1B and 1C) was 12.5 to 25 nM and the “concentration that only induced the primary phase of aggregation” value (human platelets [2]; FIGS. 1B and 1C) was 6.2 nM.
